The text below walks through data of article PMC6003237 (Bioorganic & medicinal chemistry, 2017).

Like-named read-outs stand apart in the source and are kept apart here.

The conditions of series [1]: human, 200 µM.
Series [2] addresses Purified native human prostate specific antigen (PSA) (Homo sapiens, UniProt P07288). Nature of the series: PSA-mediated hydrolysis of prodrug ex-vivo. The series is classed as biochemical. The note with it: 37 °C.
Another series has as its system mice. The note with it: IV injection.
For series [3] the following is noted: PBS, 37 °C.
A short description of series [4]: Hydrolysis in LNCaP conditioned media. The note with it: serum containing LNCaP conditioned media, 37 °C, 24–72 h.
The test system of another series is LNCaP. Nature of the series: MTT cytotoxicity in PSA producing LNCaP cells. The class given is cell-based, human.
For another series, the system named is PC3. Nature of the series: MTT cytotoxicity in non-PSA-producing PC3 cells. The class given is cell-based, human.
A short description of series [5]: Stability / hydrolysis in 10% FBS. The note with it: 10% FBS containing media, 37 °C, 24–72 h.

Chain of Purified native human prostate specific antigen (PSA) (P07288 25-261): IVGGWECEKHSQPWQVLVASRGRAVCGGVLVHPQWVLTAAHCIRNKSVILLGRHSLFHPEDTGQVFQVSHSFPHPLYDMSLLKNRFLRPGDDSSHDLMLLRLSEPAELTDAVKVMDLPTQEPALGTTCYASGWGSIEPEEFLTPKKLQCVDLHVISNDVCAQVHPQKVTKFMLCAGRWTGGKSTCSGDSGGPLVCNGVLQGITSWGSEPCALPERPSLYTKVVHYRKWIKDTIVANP

Consider `CC[C@H]1CN2CCc3cc(OC)c(OC)cc3[C@@H]2C[C@@H]1C[C@@H]1c2cc(OC)c(OC)cc2CCN1C(=O)OCc1ccc(NC(=O)[C@H](CC(C)C)NC(=O)[C@@H](N)CO)cc1` [compound 14, 4-((S)-2-((S)-2-Amino-3-hydroxypropanamido)-4-methyl-pentanamido) benzyl (R)-1-(((2R,3R,11bS)-3-ethyl-9,10-dimethoxy-1,3,4,6,7,11b-hexahydro-2H-pyrido[2,1-a]isoquinolin-2-yl)methyl)-6,7-dimethoxy-3,4-dihydroisoquinoline-2(1H)-carboxylate], for which the “% Ser-Leu-PABC-Emetine, 14 after 72 h incubation” value in series [1] and in series [3] (72 h) was 100% in each case. The “% Emetine after 72 h incubation” value in series [2] (Purified PSA, 72 h) was determined as 0.0%; in series [3] (72 h) it was 0.0%. Moreover, the “hydrolysis / conversion to emetine on incubation with purified PSA (LCMS)” value in series [2] (purified PSA, 24–72 h) is recorded as “not observed”. In addition, the “Effects/observations at higher doses” value with mice (mice) is “Toxic effect was observed at higher doses”. In addition, the “MTD (nmol injected)” value in the series with mice (mice of average body weight 25 g) is listed as 1541 nmol. In addition, the “hydrolysis to emetine or any product (LCMS)” value in series [3] (24–72 h), in series [4] and in series [5] was “did not result in its hydrolysis to emetine or any product of hydrolysis” each time. For the same molecule, the “cytotoxicity compared to emetine” value in the series on LNCaP and in the series on PC3 was “comparable to emetine” throughout. The IC50 (usually the concentration needed to halve the response being measured) in the series on LNCaP (Homo sapiens, LNCaP, 72 h) is < 100 nM; with PC3 (Homo sapiens, PC-3, 72 h) it was < 100 nM.
